Measured values as given in patent US8865741B2, “Aminoindane compounds and use thereof in treating pain” (Asana Biosciences, LLC, priority 2011, dated 2014).

Key:
[1] = system: rats; assay: Cutaneous anesthetic activity, cutaneous trunci muscle reflex (CTMR) pin-prick model; format: in vivo, rat
Experimental: Rats were subjected to several days of acclimatization to the environment and the investigator prior to entering the study. About 24 hours before each experiment, the skin on the back of male rats was shaved using electronic clippers. The anesthetic action of test agents, following subcutaneous injection was determined using a “pin-prick” method as described by Khan (Khan et al., Anesthesiology, January 2002, 96(1): 109-116). Injection volumes were standardized at 100 μL, each injection caused a small wheal to develop—the boundary of which was marked with ink. The cutaneous trunci muscle reflex (CTMR) is a reflex movement of the skin due to twitches of the lateral thoracospinal muscles elicited by noxious stimulation of the dorsal cutaneous area. An 18-guage needle was used as the noxious stimulus; six stimuli were presented to an area of ‘normal’ skin to determine baseline sensitivity and this was then repeated in the area of the wheal. […] Data were represented as % maximal possible effect (MPE) where 100% indicates complete lack of response to each of the six needle presentations in the injected area. The extent of local anesthesia was assessed at regular intervals in order to generate efficacy-duration time plots.

[2] = system: Male Sprague Dawley (SD) rats; assay: In vivo assay of mechanical nociception (rat pinch model, perisciatic injection); settings: perisciatic
[3] = system: sodium current in DRG neurons; settings: co-applied with 1 μM capsaicin; whole-cell voltage clamp; read-out: in vitro apparent affinity (IC50) for blocking sodium current in DRG neurons; cited from earlier work
[4] = system: rats; assay: Sciatic function assay (foot print score, motor function); format: in vivo, rat; settings: 200 μL of 0.2% with 2% lidocaine
From the text: The sciatic function test is a simple observational gait analysis that provides a rudimentary assessment of hind-limb motor function according to a predetermined scoring scale based on a visual inspection of the animals foot prints as it ambulates on a flat surface (the basic principles of this test are provided in Lowdon (Journal of Neuroscience Methods 24(3), 1988, 279-281)). Following the injection of a test substance(s), the animal's hind paws are inked and it is then placed on a flat paper surface and permitted to ambulate freely. The footprint pattern left by the inked footpads on the paper is inspected and assigned a ‘foot print score’ based on a subjective assessment. […] A footprint score of 1-3 reflected that the weight bearing was primarily on the knees, that the ankle and toes were used sparingly, the toes were curled, and or the plantar surface of the paw is uplifted in a concave fashion. A footprint score of 4-6 reflects that the weight bearing is primarily on the knees and angle, with very little weight bearing on the toes. A footprint score of 6-10 reflects that the weight bearing is distributed over the knee, ankle, and toes and that there is an occasional sparing of the knee joints.

[5] = system: sodium channel in hTRPV1-N1E115 cells; assay: FLIPR membrane potential assay of sodium channel response in hTRPV1-N1E115 cells, with (47° C.) or without (25° C.) heat activation of hTRPV1; format: cell-based
Outline: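 hTRPV1-N1E115 cells were loaded with membrane potential blue dye, and compound was added. Duplicate plates were either heated to 47 °C for 10 min then held 30 min at ~25 °C, or kept 40 min at room temperature. Activity was attenuation of the FLIPR Tetra signal induced by 100 μM veratridine (final).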

CCN(CC)CC(=O)Nc1c(C)cccc1C [lidocaine]
time of return of analgesia to baseline ([1]; 100 μL lidocaine (2%) alone, sub-cutaneous): around 2 hours
analgesia (% maximal possible effect) reached ([1]; 100 μL lidocaine (2%) alone, sub-cutaneous, for around 0.5 hours post injection): 100%

CC[N+](CC)(CC)CC(=O)Nc1c(C)cccc1C [QX-314, reference compound]
Average Time of Analgesia ([2]; test compound 0.5%, lidocaine 0%, total injection 100 μL): 2 h
Average Time of Analgesia ([2]; test compound 0.5%, lidocaine 0%, total injection 200 μL): 2 h
Average Time of Analgesia ([2]; test compound 0.5%, lidocaine 2%, total injection 100 μL): 6 h
Average Time of Analgesia ([2]; test compound 0.5%, lidocaine 2%, total injection 200 μL): 9 h
IC50 [3]: 30 µM

Cc1ccccc1N(CC[C@H]1CCCC[N+]1(C)C)C1Cc2ccccc2C1.[Br-] [Example 43, (R)-2-[2-(Indan-2-yl-o-tolyl-amino)-ethyl]-1,1-dimethyl-piperidinium bromide]
duration of marked motor deficit post injection ([4]; unilateral peri-sciatic injection): 2 h
time of gradual return of foot print score to normal ([4]; remaining hours of assessment after the first 6 hours): ~20 h
hTRPV1-N1E Nav 0.1 mM (% inhibition) 25° C. ([5]; 0.1 mM, 25° C. (no heat activation of hTRPV1)): 93.9%
IC50 ([5]; 47° C., class symbols, read-out: hTRPV1-N1E IC50 (μM) 47° C.): 1 to 10 µM
Average Time of Analgesia ([2]; test compound 0.2%, lidocaine 2%, total injection 200 μL): 28 h
duration of analgesia, combination with lidocaine compared to compound alone ([1]; 100 μL sub-cutaneous injection, 0.2%, with lidocaine 2% vs alone): extended duration of analgesia
